{"source": "patent US7951921B2", "about": "“Multivalent carriers of bi-specific antibodies” (Immunomedics, Inc., priority 2003, dated 2011)", "molecules": {"B1": {"name": "IMP 156 Ac-Phe-Lys(DTPA)-Tyr-Lys(DTPA)-NH2 (peptide)", "peptide": "Ac-FK(DTPA′)YK(DTPA′)-NH2", "modifications": "also: DTPA loaded with indium"}}, "key": {"[1]": {"details": "not told; cited from earlier work"}, "[2]": {"details": "cited from earlier work"}, "[3]": {"test_system": "hMN-14IgG^(I253A)-(734scFv)2", "assay": "Complex formation of radiolabeled DTPA peptides with bsMAb, size exclusion HPLC", "type": "binding", "details": "for complexing of bsMAb with radiolabeled indium-DTPA chelates: radioiodinated bsMAb, size exclusion HPLC", "from_the_text": "The binding of In-DTPA peptides to the anti-In-DTPA antibody hMN-14IgG^(I253A)-(734scFv)2 was examined by size exclusion HPLC. The bsMAb was radioiodinated using chloramines-T (Greenwood and Hunter). Binding of the radioiodinated bsMAbs to CEA, WI2 (rat anti-MN-14 idiotypic antibody) and radiolabeled peptidyl DTPA chelate was examined on analytical size exclusion HPLC. Approximately 90% of the radioiodinated bsMAb bound to CEA upon treatment with 10-20× molar excess of CEA. The bsMAb complexed with radiolabeled indium-DTPA chelates (IMP-156 or IMP-192).\nAn IMP 192 kit was labeled with Tc-99m 20.9 mCi. Aliquots from the kit were diluted and mixed with hMN-14IgG^(I253A)-(734scFv)2 in the following molar ratios (peptide/Ab) 1:5, 1:1, and 20:1. The peptide/antibody mixtures, the peptide alone and the antibody alone were examined on a Bio-Sil SEC 250 300 mm×7.8 mm HPC column eluted at 1 mL/min with 0.2 M phosphate buffer pH 6.8.\nA known standard of hMN-14IgG^(I253A)-(734scFv)2 eluted from the column at about 9.41 minutes (FIG. 3). A known standard of Tc-99m IMP 192 eluted from the column at about 14.85 minutes (FIG. 4)."}, "c734 IgG [4]": {"test_system": "c734 IgG", "assay": "Affinity blocking studies on IMP 240-coated BIAcore chip (surface plasmon resonance)", "type": "binding", "description": "(§1) The binding of In-DTPA peptides to the anti-In-DTPA antibody hMN-14IgG^(I253A)-(734scFv)2 was examined by affinity blocking studies using the IMP 240 peptide, Ac-Lys(DPTA)-Cys-NH2, which comprises a single DPTA group and a single Cys residue that can be used to form disulfide bridges with a second molecule having a free sulfhydryl group.\n(§2) The binding studies were performed on a chip coated with IMP 240 using the disulfide connection as recommended by BIAcore. The chip surface was regenerated after each assay with 100 μL 0.025 M In-DTPA in HBS-In-citrate buffer as described. The binding studies were done with picomoles of antibody therefore binding was very sensitive to the slightest trace of In-DTPA left after the displacement wash.\nStudies were performed with c734-IgG to compare the In-DTPA peptide binding behavior of this IgG to the hMN-14IgG^(I253A)-(734scFv)2."}, "[5]": {"test_system": "hMN-14IgG^(I253A)-(734scFv)2", "assay": "Affinity blocking studies on IMP 240-coated BIAcore chip (surface plasmon resonance)", "type": "binding", "description": "as §1, §2"}, "[6]": {"target": "IMP 246 [Ac-Cys-Lys(DTPA)-Tyr-Lys(DTPA)-NH2]2", "assay": "size exclusion HPLC; In-111 IMP 246 mixed with bsAb at 1:10 (IMP 246:bsAb) mole ratio"}, "[7]": {"target": "IMP 246 [Ac-Cys-Lys(DTPA)-Tyr-Lys(DTPA)-NH2]2", "assay": "size exclusion HPLC; labeled IMP 246 mixed with hMN-14 IgG^(I253A)-(734scFv)2, 16 hr at 37° C. in mouse serum"}, "[8]": {"target": "CEA (carcinoembryonic antigen) (UniProt P06731)", "sequence (P06731 35-685 limits assumed)": "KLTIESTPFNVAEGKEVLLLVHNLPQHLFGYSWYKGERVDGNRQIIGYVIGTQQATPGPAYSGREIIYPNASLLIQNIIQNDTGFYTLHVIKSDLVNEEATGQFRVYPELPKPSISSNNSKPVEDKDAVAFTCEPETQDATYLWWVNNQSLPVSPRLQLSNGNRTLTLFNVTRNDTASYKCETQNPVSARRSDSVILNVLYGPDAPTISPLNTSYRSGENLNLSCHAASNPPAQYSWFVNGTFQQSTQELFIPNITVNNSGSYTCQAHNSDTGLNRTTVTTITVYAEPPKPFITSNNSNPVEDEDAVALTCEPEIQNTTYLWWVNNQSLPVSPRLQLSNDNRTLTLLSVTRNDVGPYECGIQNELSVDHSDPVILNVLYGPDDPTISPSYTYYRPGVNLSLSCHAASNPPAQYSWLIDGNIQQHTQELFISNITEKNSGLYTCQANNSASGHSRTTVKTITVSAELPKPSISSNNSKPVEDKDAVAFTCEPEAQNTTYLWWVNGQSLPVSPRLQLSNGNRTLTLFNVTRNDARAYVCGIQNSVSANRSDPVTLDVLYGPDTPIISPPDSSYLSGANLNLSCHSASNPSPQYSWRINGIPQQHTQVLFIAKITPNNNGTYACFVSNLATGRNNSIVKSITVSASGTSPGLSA", "assay": "analytical size exclusion HPLC of radioiodinated bsMAb mixed with 10-20x molar excess of CEA"}, "c734 IgG [9]": {"target": "c734 IgG", "assay": "SPR blocking assay; peptide premixed with antibody, IMP 240 chip"}, "[10]": {"target": "hMN-14IgG^(I253A)-(734scFv)2", "assay": "SPR blocking assay; peptide premixed with antibody, IMP 240 chip"}}, "note": "Primed or numbered codes have the meaning given here. DTPA′ = diethylenetriaminepentaacetic acid", "data": [{"molecule": "Cl.NCCSSCCC(=O)O", "note": "[AEDP]", "values": [{"measurement": "Membrane Permeable", "setting": "[1]", "result": "No"}]}, {"molecule": "O=C(O)CCN1C(=O)C=CC1=O", "note": "[BMPA]", "values": [{"measurement": "Membrane Permeable", "setting": "[1]", "result": "No"}]}, {"molecule": "CCN=C=NCCCN(C)C", "note": "[EDC, 1-ethyl-3-(3-dimethylaminopropyl)-carbodiimide]", "values": [{"measurement": "Water Soluble", "setting": "[2]", "result": "Yes"}]}, {"molecule": "O=C(O)CCCCCN1C(=O)C=CC1=O", "note": "[EMCA]", "values": [{"measurement": "Membrane Permeable", "setting": "[1]", "result": "No"}]}, {"molecule": "O=C(CCCCCN1C(=O)C=CC1=O)ON1C(=O)CCC1=O", "note": "[EMCS, N-[ε-maleimidocaproyloxy]succinimide ester]", "values": [{"measurement": "Membrane Permeable", "setting": "[1]", "result": "Yes"}]}, {"molecule": "O=C(CCCN1C(=O)C=CC1=O)ON1C(=O)CCC1=O", "note": "[GMBS, N-[γ-Maleimidobutyryloxy] succinimide ester]", "values": [{"measurement": "Membrane Permeable", "setting": "[1]", "result": "Yes"}]}, {"molecule": "O=C(O)CCCCCCCCCCN1C(=O)C=CC1=O", "note": "[KMUA]", "values": [{"measurement": "Membrane Permeable", "setting": "[1]", "result": "No"}]}, {"molecule": "O=C(CCCCCNC(=O)C1CCC(CN2C(=O)C=CC2=O)CC1)ON1C(=O)CCC1=O", "note": "(centres unmarked) [LC-SMCC, succiminidyl-4-(N-maleimidomethyl)cyclohexane-1-carboxy-(6-amido-caproate)]", "values": [{"measurement": "Membrane Permeable", "setting": "[1]", "result": "No"}]}, {"molecule": "O=C(CCSSc1ccccn1)NCCCCCC(=O)ON1C(=O)CCC1=O", "note": "[LC-SPDP, N-succinimidyl 6-[3′-(2-pyridyldithio)propionamido]hexanoate]", "values": [{"measurement": "Water Soluble", "setting": "[2]", "result": "No"}]}, {"molecule": "O=C(ON1C(=O)CCC1=O)c1cccc(N2C(=O)C=CC2=O)c1", "note": "[MBS, m-maleimidobenzoyl-N-hydoxysuccinimide ester]", "values": [{"measurement": "Membrane Permeable", "setting": "[1]", "result": "Yes"}]}, {"molecule": "CC(=O)SCCC(=O)ON1C(=O)CCC1=O", "note": "[SATP]", "values": [{"measurement": "Membrane Permeable", "setting": "[1]", "result": "Yes"}]}, {"molecule": "O=C(CBr)NCCC(=O)ON1C(=O)CCC1=O", "note": "[SBAP]", "values": [{"measurement": "Membrane Permeable", "setting": "[1]", "result": "Yes"}]}, {"molecule": "O=C(CI)Nc1ccc(C(=O)ON2C(=O)CCC2=O)cc1", "note": "[SIAB, N-succinimidyl(4-iodoacetyl)aminobenzoate]", "values": [{"measurement": "Membrane Permeable", "setting": "[1]", "result": "Yes"}]}, {"molecule": "O=C(ON1C(=O)CCC1=O)C1CCC(CN2C(=O)C=CC2=O)CC1", "note": "(centres unmarked) [SMCC, succinimidyl 4-(N-maleimidomethyl)cyclohexane-1-carboxylate]", "values": [{"measurement": "Membrane Permeable", "setting": "[1]", "result": "Yes"}]}, {"molecule": "CC(SSc1ccccn1)c1ccc(C(=O)ON2C(=O)CCC2=O)cc1", "note": "(centres unmarked) [SMPT, 4-succinimidyloxycarbonyl-methyl-(2-pyridyldithio)-toluene]", "values": [{"measurement": "Water Soluble", "setting": "[2]", "result": "No"}]}, {"molecule": "O=C(CCSSc1ccccn1)ON1C(=O)CCC1=O", "note": "[SPDP, N-succinimidyl 3-(2-pyridyldithio)propionate]", "values": [{"measurement": "Membrane Permeable", "setting": "[1]", "result": "Yes"}]}, {"molecule": "C=CS(=O)(=O)c1ccc(C(=O)ON2C(=O)CCC2=O)cc1", "note": "[SVSB]", "values": [{"measurement": "Membrane Permeable", "setting": "[1]", "result": "Yes"}]}, {"molecule": "O=C(CCCCCN1C(=O)C=CC1=O)ON1C(=O)CC(S(=O)(=O)O)C1=O", "note": "(centres unmarked) [Sulfo-EMCS, N-[ε-maleimidocaproyloxy]sulfosuccinimide ester]", "values": [{"measurement": "Membrane Permeable", "setting": "[1]", "result": "No"}]}, {"molecule": "O=C(CCCN1C(=O)C=CC1=O)ON1C(=O)CC(S(=O)(=O)O)C1=O", "note": "(centres unmarked) [Sulfo-GMBS, N-[γ-Maleimidobutyryloxy] sulfosuccinimide ester]", "values": [{"measurement": "Membrane Permeable", "setting": "[1]", "result": "No"}]}, {"molecule": "O=C(CCCCCCCCCCN1C(=O)C=CC1=O)ON1C(=O)CC(S(=O)(=O)O)C1=O.[Na]", "note": "(centres unmarked) [Sulfo-KMUS]", "values": [{"measurement": "Membrane Permeable", "setting": "[1]", "result": "No"}]}, {"molecule": "CC(SSc1ccccn1)c1ccc(C(=O)NCCCCCC(=O)ON2C(=O)CC(S(=O)(=O)O)C2=O)cc1", "note": "(centres unmarked) [Sulfo-LC-SMPT, sulfosuccinimidyl 6-[a-methyl-a-(2-pyridyl-dithio)toluamido]hexanoate]", "values": [{"measurement": "Water Soluble", "setting": "[2]", "result": "Yes"}]}, {"molecule": "O=C(CCSSc1ccccn1)NCCCCCC(=O)ON1C(=O)CC(S(=O)(=O)O)C1=O", "note": "(centres unmarked) [Sulfo-LC-SPDP, sulfosuccinimidyl 6-[3′-(2-pyridyldithio)-propionamido] hexanoate]", "values": [{"measurement": "Water Soluble", "setting": "[2]", "result": "Yes"}]}, {"molecule": "O=C(ON1C(=O)CC(S(=O)(=O)O)C1=O)c1cccc(N2C(=O)C=CC2=O)c1", "note": "(centres unmarked) [Sulfo-MBS, m-maleimidobenzoyl-N-hydoxysulfosuccinimide ester]", "values": [{"measurement": "Membrane Permeable", "setting": "[1]", "result": "No"}]}, {"molecule": "O=C(CI)Nc1ccc(C(=O)ON2C(=O)CC(S(=O)(=O)O)C2=O)cc1", "note": "(centres unmarked) [Sulfo-SIAB, sulfosuccinimidyl(4-iodoacetyl)aminobenzoate]", "values": [{"measurement": "Membrane Permeable", "setting": "[1]", "result": "No"}]}, {"molecule": "O=C(ON1C(=O)CC(S(=O)(=O)O)C1=O)C1CCC(CN2C(=O)C=CC2=O)CC1", "note": "(centres unmarked) [Sulfo-SMCC, sulfosuccinimidyl 4-(N-maleimidomethyl)cyclohexane-1-carboxylate]", "values": [{"measurement": "Membrane Permeable", "setting": "[1]", "result": "No"}]}, {"molecule": "O=C(CCCc1ccc(N2C(=O)C=CC2=O)cc1)ON1C(=O)CC(S(=O)(=O)O)C1=O", "note": "(centres unmarked) [Sulfo-SMPB, sulfosuccinimidyl 4-[p-maleimidophenyl]butyrate]", "values": [{"measurement": "Water Soluble", "setting": "[2]", "result": "Yes"}]}, {"molecule": "Ac-Lys(DTPA)-Tyr-Lys(DTPA)-Lys(TSCG-Cys)-NH2 [IMP 192]", "values": [{"measurement": "peptide/antibody complexes formed (HPLC traces)", "setting": "[3]; Tc-99m IMP 192 mixed with antibody, molar ratios 1:5, 1:1, 20:1", "result": "essentially only one peptide/antibody complex is formed"}, {"measurement": "complexing of bsMAb with radiolabeled indium-DTPA chelates", "setting": "[3]", "result": "complexed"}]}, {"molecule": "Ac-Phe-Gln-Tyr-Lys(DTPA)-NH2 (Ac-FQYK(DTPA′)-NH2) [IMP 233]", "values": [{"measurement": "blocking of antibody binding to the IMP 240 chip", "setting": "c734 IgG [4]; 4:1 peptide/c734 IgG", "result": "did not completely block"}, {"measurement": "blocking of antibody binding to the IMP 240 chip", "setting": "[5]; four equivalents of peptide premixed with the antibody", "result": "not completely blocked"}]}, {"molecule": "Ac-Phe-Lys(DTPA)-Tyr-Lys(DTPA)-NH2 (Ac-FK(DTPA′)YK(DTPA′)-NH2) [IMP 156]", "values": [{"measurement": "complexing of bsMAb with radiolabeled indium-DTPA chelates", "setting": "[3]", "result": "complexed"}, {"measurement": "equivalents of peptide needed to block binding to the chip", "setting": "c734 IgG [4]", "result": "two or more equivalents"}, {"measurement": "affinity of antibody for In-IMP 156 relative to a single In-DTPA for a c734 IgG binding arm", "setting": "[5]", "result": "far higher"}, {"measurement": "equivalents of peptide that block binding to the chip", "setting": "[5]", "result": "one equivalent"}, {"measurement": "blocking of antibody binding to the IMP 240 chip", "setting": "[5]; peptide mixed with antibody in a 1:1 ratio", "result": "completely blocked"}]}, {"molecule": "hMN-14IgG-(734scFv)2 (bispecific antibody)", "values": [{"measurement": "percent of In-111 label in the complex peak", "setting": "[6]", "result": 83, "unit": "%"}]}, {"molecule": "hMN-14IgG^(I253A)-(734scFv)2 (bispecific antibody)", "values": [{"measurement": "percent of HPLC area in the complex peak after 16 hr in mouse serum", "setting": "[7]", "result": "> 90", "unit": "%"}, {"measurement": "percent of bsMAb bound", "setting": "[8]", "result": 90, "unit": "%"}, {"measurement": "percent of In-111 label in the complex peak", "setting": "[6]", "result": 90, "unit": "%"}]}, {"molecule": "B1", "values": [{"measurement": "equivalents of peptide needed to block binding to the IMP 240 chip", "setting": "c734 IgG [9]", "result": 2, "unit": "equivalents"}, {"measurement": "equivalents of peptide needed to block binding to the IMP 240 chip", "setting": "[10]", "result": 1, "unit": "equivalents"}]}]}
